Laboratory results: US10894798B2, “Substituted dihydropyrrolopyrazole derivative” (UBE INDUSTRIES, LTD., priority 2015, dated 2021)
Like-named read-outs stand apart in the source and are kept apart here.

Experiments:
IL-17 production = experiment: Human PBMC various-stimulant cocktail-induced IL-17 production inhibition test; type: cell-based; conditions: 120 h, human T-cell suspension from PBMC, culture for 5 days, ELISA
Source text: PBMC was separated and collected by using Ficoll-Paque (manufactured by GE Healthcare Japan Corp.) from blood collected from a healthy human adult in the presence of heparin. The collected PBMC was further cultured in a flask for a certain time, and then, non-adherent cells in the supernatant were collected and used as a T-cell suspension.
A RPMI1640 medium containing 10% FBS, 1% penicillin/streptomycin/amphotericin B, essential amino acids, and pyruvic acid and containing a test compound dissolved in DMSO, a human CD28 antibody, a human IFN-γ antibody, a human IL-4 antibody, human IL-6, human IL-23, human IL-1β, and human TGF-β was added at 100 μL/well to T cell Activation Plate Anti-Human CD3 96-well plate. Subsequently, 100 μL of a T-cell suspension adjusted to 2×10^5 cells/mL was added to each well (final DMSO concentration: 0.1%). Only DMSO was added to wells not supplemented with the test compound. After culture for 5 days in a carbon dioxide incubator, the culture supernatant was collected and stored at −20° C. until IL-17 content measurement.
In the measurement of an IL-17 content in the culture supernatant, a sandwich ELISA kit (Quantikine Human IL-17, manufactured by R&D Systems, Inc.) was used. The IL-17 content of each sample was calculated from the calibration curve of Standard IL-17 included in the kit. […] The concentration of the test compound necessary for inhibiting 50% of IL-17 production (IC50 value) was calculated from the concentration of the added test compound and the rate of inhibition of IL-17 production by the test compound by using EXSUS (version 8.1.0, manufactured by CAC Exicare Corp.).

[1] = test system: human large intestine cancer cell line (HCT-116); experiment: Human large intestine cancer (HCT-116) cell growth inhibition test; type: cell-based
Procedure, shortened: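 HCT-116 cells were seeded at 0.5 to 2.0×10^3 cells/well in McCoy's 5A with 10% FBS and dosed with compound at 0.1% final DMSO after overnight culture. Growth was measured by sulforhodamine B absorbance after 3 days. GI50 was calculated from the inhibition rate at each concentration.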

PLK1 = molecular target: T1, PLK1 (Homo sapiens, UniProt P53350); experiment: PLK1 enzyme (polo-like kinase) inhibition test; type: biochemical; conditions: [γ-33P]ATP, casein substrate; Ki=IC50/(1+S/Km); read-out: Ki value of PLK1 inhibitory activity
T1 construct: purchased Carna Biosciences, Inc. 05-157
Procedure, shortened: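 Recombinant PLK1 phosphorylates casein with [γ-^33P]ATP in MOPS buffer (pH 7.0) containing DTT and magnesium acetate, 20 min at 30° C. Reaction stopped with TCA; washed precipitate counted by liquid scintillation. IC50 for inhibition of ^33P incorporation into casein, converted to Ki via Ki=IC50/(1+S/Km).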

[2] = HCT-116 (row of Table 50), read-out: GI50 value (concentration necessary for inhibiting 50% of cell growth)
[3] = HCT-116, 72 h, culture for 3 days, sulforhodamine B, read-out: GI50 value, HCT-116 cell growth inhibition

T1 sequence (P53350 whole entry): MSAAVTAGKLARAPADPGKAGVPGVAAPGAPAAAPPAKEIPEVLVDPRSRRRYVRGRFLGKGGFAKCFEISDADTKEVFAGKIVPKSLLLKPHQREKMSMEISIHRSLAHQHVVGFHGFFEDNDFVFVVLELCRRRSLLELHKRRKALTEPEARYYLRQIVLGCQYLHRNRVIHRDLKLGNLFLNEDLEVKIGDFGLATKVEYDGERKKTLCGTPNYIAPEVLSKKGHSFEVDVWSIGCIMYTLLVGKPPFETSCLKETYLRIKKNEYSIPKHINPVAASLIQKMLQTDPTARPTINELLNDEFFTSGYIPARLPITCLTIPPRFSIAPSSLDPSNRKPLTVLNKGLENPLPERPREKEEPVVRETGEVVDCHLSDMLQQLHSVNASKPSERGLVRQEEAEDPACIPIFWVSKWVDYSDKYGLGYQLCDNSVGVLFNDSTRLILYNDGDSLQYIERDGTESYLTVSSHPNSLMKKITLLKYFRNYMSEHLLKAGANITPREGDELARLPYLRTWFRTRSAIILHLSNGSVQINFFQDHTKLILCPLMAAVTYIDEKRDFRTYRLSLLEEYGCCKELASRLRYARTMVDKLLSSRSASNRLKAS

Structure (SMILES) | IC50 (IL-17 production) [µM] | GI50 [1, 2] [µM] | GI50 [1, 3] [µM] | Ki (PLK1) [µM]
CC1(C)c2[nH]nc(NC(=O)C3([Si](C)(C)C)CCC3)c2CN1C(=O)Nc1ccccc1F [IV-3, N-(2-Fluorophenyl)-6,6-dimethyl-3-[1-(trimethylsilyl)cyclobutanecarboxamido]-4,6-dihydropyrrolo[3,4-c]pyrazole-5(1H)-carboxamide] | ≤ 0.1 | < 0.3 | ≤ 0.1 | ≥ 5
CC1(C)c2[nH]nc(NC(=O)C3([Si](C)(C)C)CCC3)c2CN1C(=O)Nc1ccccc1Br [IV-15, N-(2-Bromophenyl)-6,6-dimethyl-3-[1-(trimethylsilyl)cyclobutanecarboxamido]-4,6-dihydropyrrolo[3,4-c]pyrazole-5(1H)-carboxamide] |  |  | ≤ 0.1 | ≥ 5
Cc1ccccc1NC(=O)N1Cc2c(NC(=O)C3([Si](C)(C)C)CCC3)n[nH]c2C1(C)C [IV-21, 6,6-Dimethyl-N-(o-tolyl)-3-[1-(trimethylsilyl)cyclobutanecarboxamido]-4,6-dihydropyrrolo[3,4-c]pyrazole-5(1H)-carboxamide] |  |  | ≤ 0.1 | ≥ 5
CC1(C)c2[nH]nc(NC(=O)C3([Si](C)(C)C)CCC3)c2CN1C(=O)Nc1c(F)cccc1Cl [IV-113, N-(2-Chloro-6-fluorophenyl)-6,6-dimethyl-3-[1-(trimethylsilyl)cyclobutanecarboxamido]-4,6-dihydropyrrolo[3,4-c]pyrazole-5(1H)-carboxamide] |  |  | ≤ 0.1 | ≥ 5
Cc1ccc(F)c(NC(=O)N2Cc3c(NC(=O)C4([Si](C)(C)C)CCC4)n[nH]c3C2(C)C)c1 [IV-127, N-(2-Fluoro-5-methylphenyl)-6,6-dimethyl-3-[1-(trimethylsilyl)cyclobutanecarboxamido]-4,6-dihydropyrrolo[3,4-c]pyrazole-5 (1H)-carboxamide] |  |  | ≤ 0.1 | ≥ 5
Cc1cccc(F)c1NC(=O)N1Cc2c(NC(=O)C3([Si](C)(C)C)CCC3)n[nH]c2C1(C)C [IV-129, N-(2-Fluoro-6-methylphenyl)-6,6-dimethyl-3-[1-(trimethylsilyl)cyclobutanecarboxamido]-4,6-dihydropyrrolo[3,4-c]pyrazole-5 (1H)-carboxamide] | ≤ 0.1 |  | ≤ 0.1 | ≥ 5
CCc1cccc(F)c1NC(=O)N1Cc2c(NC(=O)C3([Si](C)(C)C)CCC3)n[nH]c2C1(C)C [IV-137, N-(2-Ethyl-6-fluorophenyl)-6,6-dimethyl-3-[1-(trimethylsilyl)cyclobutanecarboxamido]-4,6-dihydropyrrolo[3,4-c]pyrazole-5(1H)-carboxamide] | ≤ 0.1 |  | ≤ 0.1 | ≥ 5
COc1cccc(F)c1NC(=O)N1Cc2c(NC(=O)C3([Si](C)(C)C)CCC3)n[nH]c2C1(C)C [IV-161, N-(2-Fluoro-6-methoxyphenyl)-6,6-dimethyl-3-[1-(trimethylsilyl)cyclobutanecarboxamido]-4,6-dihydropyrrolo[3,4-c]pyrazole-5(1H)-carboxamide] |  |  | ≤ 0.1 | ≥ 5
CC1(C)c2[nH]nc(NC(=O)C3([Si](C)(C)C)CCC3)c2CN1C(=O)Nc1c(F)cccc1OC(F)F [IV-169, N-[2-(Difluoromethoxy)-6-fluorophenyl]-6,6-dimethyl-3-[1-(trimethylsilyl)cyclobutanecarboxamido]-4,6-dihydropyrrolo[3,4-c]pyrazole-5(1H)-carboxamide] |  |  | ≤ 0.1 | ≥ 5
CC1(C)c2[nH]nc(NC(=O)C3([Si](C)(C)C)CCC3)c2CN1C(=O)Nc1c(Cl)cccc1Cl [IV-199, N-(2,6-Dichlorophenyl)-6,6-dimethyl-3-[1-(trimethylsilyl)cyclobutanecarboxamido]-4,6-dihydropyrrolo[3,4-c]pyrazole-5(1H)-carboxamide] | ≤ 0.1 |  | ≤ 0.1 | ≥ 5
Cc1cccc(Cl)c1NC(=O)N1Cc2c(NC(=O)C3([Si](C)(C)C)CCC3)n[nH]c2C1(C)C [IV-215, N-(2-Chloro-6-methylphenyl)-6,6-dimethyl-3-[1-(trimethylsilyl)cyclobutanecarboxamido]-4,6-dihydropyrrolo[3,4-c]pyrazole-5 (1H)-carboxamide] | ≤ 0.1 | < 0.3 | ≤ 0.1 | ≥ 5

The remaining lines, values ahead:

IC50 (IL-17 production) [µM] | GI50 [1, 2] [µM] | GI50 [1, 3] [µM] | Ki (PLK1) [µM] | Structure (SMILES)
≤ 0.1 |  | ≤ 0.1 | ≥ 5 | COc1cccc(Cl)c1NC(=O)N1Cc2c(NC(=O)C3([Si](C)(C)C)CCC3)n[nH]c2C1(C)C [IV-247, N-(2-Chloro-6-methoxyphenyl)-6,6-dimethyl-3-[1-(trimethylsilyl)cyclobutanecarboxamido]-4,6-dihydropyrrolo[3,4-c]pyrazole-5(1H)-carboxamide]
≤ 0.1 | < 0.3 | ≤ 0.1 | ≥ 5 | Cc1cccc(Br)c1NC(=O)N1Cc2c(NC(=O)C3([Si](C)(C)C)CCC3)n[nH]c2C1(C)C [IV-299, N-(2-Bromo-6-methylphenyl)-6,6-dimethyl-3-[1-(trimethylsilyl)cyclobutanecarboxamido]-4,6-dihydropyrrolo[3,4-c]pyrazole-5 (1H)-carboxamide]
 |  | ≤ 0.1 | ≥ 5 | Cc1cc(F)ccc1NC(=O)N1Cc2c(NC(=O)C3([Si](C)(C)C)CCC3)n[nH]c2C1(C)C [IV-359, N-(4-Fluoro-2-methylphenyl)-6,6-dimethyl-3-[1-(trimethylsilyl)cyclobutanecarboxamido]-4,6-dihydropyrrolo[3,4-c]pyrazole-5 (1H)-carboxamide]
≤ 0.1 | < 0.3 | ≤ 0.1 | ≥ 5 | Cc1ccc(F)cc1NC(=O)N1Cc2c(NC(=O)C3([Si](C)(C)C)CCC3)n[nH]c2C1(C)C [IV-361, N-(5-Fluoro-2-methylphenyl)-6,6-dimethyl-3-[1-(trimethylsilyl)cyclobutanecarboxamido]-4,6-dihydropyrrolo[3,4-c]pyrazole-5 (1H)-carboxamide]
≤ 0.1 | < 0.3 | ≤ 0.1 | ≥ 5 | Cc1ccc(C)c(NC(=O)N2Cc3c(NC(=O)C4([Si](C)(C)C)CCC4)n[nH]c3C2(C)C)c1 [IV-379, N-(2,5-Dimethylphenyl)-6,6-dimethyl-3-[1-(trimethylsilyl)cyclobutanecarboxamido]-4,6-dihydropyrrolo[3,4-c]pyrazole-5(1H)-carboxamide]
≤ 0.1 |  | ≤ 0.1 | ≥ 5 | CCc1cccc(C)c1NC(=O)N1Cc2c(NC(=O)C3([Si](C)(C)C)CCC3)n[nH]c2C1(C)C [IV-389, N-(2-Ethyl-6-methylphenyl)-6,6-dimethyl-3-[1-(trimethylsilyl)cyclobutanecarboxamido]-4,6-dihydropyrrolo[3,4-c]pyrazole-5 (1H)-carboxamide]
 |  | ≤ 0.1 | ≥ 5 | CC1(C)c2[nH]nc(NC(=O)C3([Si](C)(C)C)CCC3)c2CN1C(=O)Nc1c(F)ccc(F)c1F [IV-597, 6,6-Dimethyl-N-(2,3,6-trifluorophenyl)-3-[1-(trimethylsilyl)cyclobutanecarboxamido]-4,6-dihydropyrrolo[3,4-c]pyrazole-5(1H)-carboxamide]
≤ 0.1 | < 0.3 | ≤ 0.1 | ≥ 5 | Cc1ccc(C)c(NC(=O)N2Cc3c(NC(=O)C4([Si](C)(C)C)CCC4)n[nH]c3C2(C)C)c1F [IV-669, N-(2-Fluoro-3,6-dimethylphenyl)-6,6-dimethyl-3-[1-(trimethylsilyl)cyclobutanecarboxamido]-4,6-dihydropyrrolo[3,4-c]pyrazole-5(1H)-carboxamide]
≤ 0.1 | < 0.3 | ≤ 0.1 | ≥ 5 | CC1(C)c2[nH]nc(NC(=O)C3([Si](C)(C)C)CCC3)c2CN1C(=O)Nc1c(F)ccc2ccoc12 [IV-1049, N-(6-Fluorobenzofuran-7-yl)-6,6-dimethyl-3-[1-(trimethylsilyl)cyclobutanecarboxamido]-4,6-dihydropyrrolo[3,4-c]pyrazole-5 (1H)-carboxamide]
 |  | ≤ 0.1 | ≥ 5 | CC1(C)c2[nH]nc(NC(=O)C3([Si](C)(C)C)CCC3)c2CN1C(=O)Nc1c(F)ccc2cc(Cl)oc12 [IV-1063, N-(2-Chloro-6-fluorobenzofuran-7-yl)-6,6-dimethyl-3-[1-(trimethylsilyl)cyclobutanecarboxamido]-4,6-dihydropyrrolo[3,4-c]pyrazole-5(1H)-carboxamide]
